Assay results as given in US20220288057A1, “CONJOINT THERAPY FOR TREATING SEIZURE DISORDERS” (XENON PHARMACEUTICALS INC., priority 2021, published 2022).
Values joined by “and” are separate entries in the source; they are usually repeats but may differ in a detail not shown here. Identical values can stand only once. Like-named read-outs stand apart in the source and are kept apart here.

Assay: Terminal plasma and brain concentrations in AC-MES studies (UHPLC-MS/MS)
Format: in vivo, mouse
Settings: for concentration at 0.5 h / Kp at 0.5 h / concentration at 30 min / Kp at 30 min: CF-1, mouse, in vivo
Protocol: Sample Collection and Preparation: Mice were anesthetized by isoflurane inhalation (according to SOP TECH-018) until they reached a surgical plane of anesthesia. Then a syringe (1 mL syringe with a 22 gauge needle) was inserted under the sternum into the heart (according to SOP TECH-031). Approximately 0.5 mL of blood was collected, deposited into a K2EDTA tube, and stored on ice. Animals were then euthanized by cervical dislocation. Brains were removed, placed into a pre-weighed vial, and snap frozen on dry ice. At the end of the sample collection, blood was centrifuged at 4000 rpm for 10 minutes at 4° C., and the plasma pipetted into a labeled tube. All samples were stored in a −80° C. freezer until the time of bioanalysis.
Plasma Samples: Extraction of plasma samples was carried out by protein precipitation using acetonitrile. Diluted plasma samples (50 μL) were mixed with 50 μL of internal standard (IS) solution in 1:1 acetonitrile:water (v:v) followed by addition of 200 μL of acetonitrile. Samples were vortexed for 30 seconds, centrifuged at 13,000 rpm for 20 minutes, decanted into a 96-well plate and further centrifuged at 4000 rpm for 20 minutes. The samples were analyzed by ultra-high performance liquid chromatography electrospray ionization tandem mass spectrometry (UHPLC-ESI-MS/MS) as described in the bioanalysis procedure below.
Brain Samples: Prior to extraction, pre-weighed whole brains were homogenized in 1:1 acetonitrile:water (v:v) (2 mL per mouse brain) using an IKA T18 Ultra-Turrax Homogenizer at the setting of 4 for approximately 1 minute. The homogenate was centrifuged at 13,000 rpm for 20 minutes and 50 μL of the supernatant were treated exactly as described in above for plasma samples.
Bioanalysis Procedures: All samples, including plasma and brain homogenate extracts (including calibration standards and quality control (QC) samples prepared in K2EDTA mouse plasma), were extracted by protein precipitation. To each 50 μL aliquot of sample, 50 μL of IS solution (2500 ng/mL of Lacosamide in water:acetonitrile (1:1)) and 50 μL of 6% (v:v) phosphoric acid in water were added, then 200 μL acetonitrile was added. The samples in 1.7 mL tubes were vortex-mixed then centrifuged for 20 minutes at 13,000 rpm. Fifty microliters of the supernatant was mixed with 150 μL of water:acetonitrile (1:1) in a 96 well plate, which was centrifuged post-mixing for 20 minutes at 4000 rpm. The samples were then ready for UHPLC-MS/MS analysis.
Samples were analyzed for Compound A by a research-grade UHPLC-MS/MS method using the conditions listed below.
Samples were analyzed for Lacosamide by a research-grade UHPLC-MS/MS method using the conditions listed below.
At least three QC samples, one at each concentration, had to show back-calculated values within ±20% of their nominal concentrations for the whole sample batch to be valid.
The Blinding and Randomization, Clinical Observations, AC-MES Assay, Sample Collection and Preparation, Plasma and Brain Samples Analysis, and Bioanalysis Procedures in Example 4 were identical to those used in Example 2.
Sample concentration determination and Data Processing and Analysis in Example 4 was identical to Example 2.

[1] = Study 2C, analyte Compound A, 3 mg/kg PO 0.5 h + Lacosamide 10 mg/kg PO 2 h
[2] = Study 4F, Compound A 2 mg/kg PO (0.5 h) in combination with Cenobamate 5 mg/kg PO (2 h)
[3] = Study 4G, Compound A 0.5 mg/kg PO (0.5 h) in combination with Cenobamate 5 mg/kg PO (2 h)
[4] = Study 4G, Compound A 1 mg/kg PO (0.5 h) in combination with Cenobamate 5 mg/kg PO (2 h)

## Cc1cc(N2CCc3cc(F)ccc3C2)cc(C)c1NC(=O)CC(C)(C)C [Compound A, N-[4-(6-fluoro-3,4-dihydro-1H-isoquinolin-2-yl)-2,6-dimethylphenyl]-3,3-dimethylbutanamide]
2 mg/kg, Study 4F, Compound A 2 mg/kg PO alone, 0.5 h pre-treatment, CF-1 mice, read-out: Mean Brain
  concentration at 0.5 h: 250 nM
2 mg/kg, Study 4F, Compound A 2 mg/kg PO alone, 0.5 h pre-treatment, CF-1 mice, read-out: Mean Plasma
  concentration at 0.5 h: 110 nM
Study 2C, analyte Compound A, 3 mg/kg PO 0.5 h + Lacosamide 10 mg/kg PO 2 h, read-out: Mean Plasma
  concentration at 0.5 h: 279 nM
Study 4F, analyte Compound A, 2 mg/kg in combination with Cenobamate 5 mg/kg, read-out: mean plasma concentration
  concentration at 0.5 h: 290 nM
Study 4G, analyte Compound A, 0.5 mg/kg in combination with Cenobamate 5 mg/kg, read-out: mean total plasma concentration
  concentration at 0.5 h: 30 nM
Study 4G, analyte Compound A, 1 mg/kg in combination with Cenobamate 5 mg/kg, read-out: mean total plasma concentration
  concentration at 0.5 h: 110 nM
po, 2 mg/kg, Study 4F, Compound A 2 mg/kg PO, 0.5 h, alone, read-out: mean plasma concentration
  concentration at 0.5 h: 110 nM
po, 2 mg/kg, Study 4F, Compound A 2 mg/kg PO alone, read-out: B/P Ratio (brain to plasma ratio)
  Kp at 0.5 h: 2.32
Study 2A, Compound A 1 mg/kg PO, 0.5 h, 1 mg/kg, read-out: Mean Plasma
  concentration at 2 h: 80 nM
Study 2A, Compound A 5 mg/kg PO, 0.5 h, 5 mg/kg, read-out: Mean Plasma
  concentration at 2 h: 280 nM
Study 2A, Compound A 10 mg/kg PO, 0.5 h, 10 mg/kg, read-out: Mean Plasma
  concentration at 2 h: 370 nM
Study 2B, Compound A 10 mg/kg PO, 0.5 h, 10 mg/kg, read-out: Mean Plasma
  concentration at 2 h: 550 nM
Study 2C, Compound A 3 mg/kg PO, 0.5 h, alone, 3 mg/kg, read-out: Mean Plasma
  concentration at 2 h: 280 nM and 283 nM
[1]
  B/P Ratio: 1.95 +
  Mean Brain: 0.54 + μM
  Mean Plasma: 0.28 + μM
Study 4B, Compound A 5 mg/kg PO, 0.5 h, 5 mg/kg, read-out: mean plasma concentration
  concentration at 2 h: 470 nM
[2]
  Mean Brain, Compound A: 0.67 µM
  Mean Plasma, Compound A: 0.29 µM
Study 4F, Compound A 2 mg/kg PO in combination with Cenobamate 5 mg/kg PO
  B/P Ratio, Compound A: 2.34
[3]
  Mean Brain, Compound A: 0.09 µM
  Mean Plasma, Compound A: 0.03 µM
Study 4G, Compound A 0.5 mg/kg PO in combination with Cenobamate 5 mg/kg PO
  B/P Ratio, Compound A: 3.22
[4]
  Mean Brain, Compound A: 0.30 µM
  Mean Plasma, Compound A: 0.11 µM
Study 4G, Compound A 1 mg/kg PO in combination with Cenobamate 5 mg/kg PO
  B/P Ratio, Compound A: 2.76
male, 1 mg/kg, Study 4A, Compound A 1 mg/kg single oral dose, 30 min pre-treatment, CF-1 mice, read-out: Brain
  concentration at 30 min: 150 nM
male, 1 mg/kg, Study 4A, Compound A 1 mg/kg single oral dose, 30 min pre-treatment, CF-1 mice, read-out: Plasma
  concentration at 30 min: 80 nM
male, 5 mg/kg, Study 4A, Compound A 5 mg/kg single oral dose, 30 min pre-treatment, CF-1 mice, read-out: Brain
  concentration at 30 min: 400 nM
male, 5 mg/kg, Study 4A, Compound A 5 mg/kg single oral dose, 30 min pre-treatment, CF-1 mice, read-out: Plasma
  concentration at 30 min: 280 nM
male, 10 mg/kg, Study 4A, Compound A 10 mg/kg single oral dose, 30 min pre-treatment, CF-1 mice, read-out: Brain
  concentration at 30 min: 500 nM
male, 10 mg/kg, Study 4A, Compound A 10 mg/kg single oral dose, 30 min pre-treatment, CF-1 mice, read-out: Plasma
  concentration at 30 min: 370 nM
male, po, 1 mg/kg, Study 2A, Compound A 1 mg/kg PO, 0.5 h, read-out: B/P Ratio
  Kp at 0.5 h: 1.85
male, po, 1 mg/kg, Study 2A, Compound A 1 mg/kg PO, 0.5 h, read-out: Mean Brain
  concentration at 0.5 h: 150 nM
male, po, 1 mg/kg, Study 2A, Compound A 1 mg/kg PO, 0.5 h, read-out: Mean Plasma
  concentration at 0.5 h: 81.5 nM
male, po, 1 mg/kg, Study 4A, Compound A 1 mg/kg PO, 0.5 h, read-out: mean plasma concentration
  concentration at 0.5 h: 80 nM
male, po, 1 mg/kg, Study 4A, Compound A 1 mg/kg single oral dose, read-out: B/P Ratio (brain to plasma ratio)
  Kp at 30 min: 1.85
male, po, 3 mg/kg, Study 2C, Compound A 3 mg/kg PO, 0.5 h, alone, read-out: B/P Ratio
  Kp at 0.5 h: 1.79
male, po, 3 mg/kg, Study 2C, Compound A 3 mg/kg PO, 0.5 h, alone, read-out: Mean Brain
  concentration at 0.5 h: 510 nM
male, po, 3 mg/kg, Study 2C, Compound A 3 mg/kg PO, 0.5 h, alone, read-out: Mean Plasma
  concentration at 0.5 h: 284 nM
male, po, 3 mg/kg, Study 4C, Compound A 3 mg/kg PO, 0.5 h, read-out: plasma concentration
  concentration at 0.5 h: 280 nM
male, po, 3 mg/kg, Study 4C, Compound A 3 mg/kg single oral dose, CF-1 mice, read-out: Mean Brain
  concentration at 30 min: 510 nM
male, po, 3 mg/kg, Study 4C, Compound A 3 mg/kg single oral dose, CF-1 mice, read-out: Mean Plasma
  concentration at 30 min: 280 nM
male, po, 3 mg/kg, Study 4C, Compound A 3 mg/kg single oral dose, read-out: B/P Ratio (brain to plasma ratio)
  Kp at 30 min: 1.79
male, po, 5 mg/kg, Study 2A, Compound A 5 mg/kg PO, 0.5 h, read-out: B/P Ratio
  Kp at 0.5 h: 1.45
male, po, 5 mg/kg, Study 2A, Compound A 5 mg/kg PO, 0.5 h, read-out: Mean Brain
  concentration at 0.5 h: 400 nM
male, po, 5 mg/kg, Study 2A, Compound A 5 mg/kg PO, 0.5 h, read-out: Mean Plasma
  concentration at 0.5 h: 276 nM
